Like-named read-outs stand apart in the source and are kept apart here.
How the values were obtained:
human P2Y1 receptor [1] = target: T1, human P2Y1 receptor (Homo sapiens, UniProt P47900); format: cell-based; conditions: for Calcium response on addition of nucleotide: control experiments
human P2Y1 receptor [2] = target: T1, human P2Y1 receptor; experiment: [3H]MRS2279 binding assay, membranes from astrocytoma cells
human P2Y1 receptor [3] = target: T1, human P2Y1 receptor; experiment: Yeast liquid growth assay; format: cell-based
P2Y1 receptor = conditions: read-out: KB previously reported; cited from earlier work
[4] = read-out: Functional potency (EC50), Calcium (astrocytoma), 1321N1 astrocytoma cells, FlexStation, n = 3
[5] = read-out: Binding (Ki), Astrocytoma, competition for [3H]MRS2279 (8 nM) binding, 30 min, 4°C

T1 sequence (P47900 whole entry): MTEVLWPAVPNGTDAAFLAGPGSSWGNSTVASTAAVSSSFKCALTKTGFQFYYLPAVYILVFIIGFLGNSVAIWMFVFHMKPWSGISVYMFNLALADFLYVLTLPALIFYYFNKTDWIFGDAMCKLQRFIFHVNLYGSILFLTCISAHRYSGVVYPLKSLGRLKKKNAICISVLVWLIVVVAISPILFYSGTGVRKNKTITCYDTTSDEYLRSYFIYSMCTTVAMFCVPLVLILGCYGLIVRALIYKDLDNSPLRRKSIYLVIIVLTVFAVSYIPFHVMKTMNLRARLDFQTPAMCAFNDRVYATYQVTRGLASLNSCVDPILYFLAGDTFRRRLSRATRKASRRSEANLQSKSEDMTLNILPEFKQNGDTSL

“2-hexylthioadenosine 5′-monophosphate [HT-AMP]” gave an EC50 (human P2Y1 receptor [1]; [4]) of 16 ± 11 nM and a Ki (human P2Y1 receptor [2]; [5]) of 1700 nM.
Nc1ncnc2c1ncn2[C@@H]1O[C@H](COP(=O)(O)OP(=O)(O)OP(=O)(O)O)[C@@H](N)[C@H]1O [3AM-ATP, 3′-amino-3′-deoxy-ATP] showed an EC50 (human P2Y1 receptor [1]; [4]) of 3000 ± 1500 nM.
With Nc1ncnc2c1ncn2[C@@H]1O[C@H](COP(=O)(O)OP(=O)(O)O)[C@@H](O)[C@H]1O [ADP, adenosine 5′-diphosphate] the EC50 (human P2Y1 receptor [1]) was 58 ± 17 nM and the EC50 (human P2Y1 receptor [3]) was 1800 ± 650 nM.
For Nc1ncnc2c1ncn2[C@@H]1O[C@H](COP(=O)(O)OP(=O)(O)S)[C@@H](O)[C@H]1O (stereo partly drawn) [ADP-β-S, adenosine 5′-O-(2-thio-diphosphate)], the EC50 (human P2Y1 receptor [1]) was 86 ± 42 nM, the EC50 (human P2Y1 receptor [3]) was 21000 nM and the Ki (human P2Y1 receptor [2]) was 710 nM.
In the case of CNc1ncnc2c1ncn2[C@H]1C[C@H](OP(=O)(O)O)[C@@H](COP(=O)(O)O)O1 [MRS2179, N^6-methyl-2′-deoxyadenosine-3′,5′-bisphosphate], the Kb (P2Y1 receptor) is given as 177 nM, the Kb (human P2Y1 receptor [1]; KB (Schild analysis), antagonism of ADP-induced calcium mobilization) is given as 164 nM and the “Effect on ADP concentration-response curve in yeast growth assay” value (human P2Y1 receptor [3]; MRS2179 fixed at 10^-6, 10^-5, 10^-4 M, agonist ADP) is given as “right shift in the curves”.
Work on Nc1ccc(CCSc2nc(N)c3ncn([C@@H]4O[C@H](COP(=O)(O)OP(=O)(O)OP(=O)(O)O)[C@@H](O)[C@H]4O)c3n2)cc1 [PAPET-ATP, 2-[4-amino (2-phenylethyl)thio]-ATP] yielded an EC50 (human P2Y1 receptor [1]; [4]) of 28 ± 13 nM and a Ki (human P2Y1 receptor [2]; [5]) of 1100 nM.
In the case of O=c1ccn([C@@H]2O[C@H](COP(=O)(O)OP(=O)(O)O)[C@@H](O)[C@H]2O)c(=O)[nH]1 [UDP, uridine 5’-diphosphate], the “Calcium response on addition of nucleotide” value (human P2Y1 receptor [1]) is reported as “did not induce any response” and the “Yeast growth in presence of nucleotide” value (human P2Y1 receptor [3]; data not shown) is reported as “Basal growth was low”.
In the case of O=c1ccn([C@@H]2O[C@H](COP(=O)(O)OP(=O)(O)OP(=O)(O)O)[C@@H](O)[C@H]2O)c(=O)[nH]1 [UTP, uridine 5’-triphosphate], the “Calcium response on addition of nucleotide” value (human P2Y1 receptor [1]) is reported as “did not induce any response”.

From PMC1350429 (Purinergic Signalling, 2005)
